Measurements published in patent US7251525B2, “Treatment of arrhythmias via inhibition of a multifunctional calcium/calmodulin-dependent protein kinase” (The Board of Trustees of the Leland Stanford Jr. University, priority 1997, dated 2007).

Tests used:
[1] = biological target: CaM kinase (Oryctolagus cuniculus, UniProt O77708); test: Ca2+-independent CaM kinase activity in LV tissue from isolated rabbit hearts; conditions: clofilium 7.5 μmole/l; KN-93 pretreatment 0.5 μmol/l
Protocol: FIG. 4. Percent calcium-independent CaM kinase activity in isolated rabbit hearts. Maximal (i.e. Ca^2+/calmodulin-dependent) and Ca^2+-independent CaM kinase activities were assayed from left ventricular (LV) tissue homogenates as described in Example 5, Experimental Methods. All hearts were initially isolated under control conditions. A stabilization period of ≧10 min was used for each isolated heart to ensure the absence of EADs, as indicated by monophasic action potentials (MAPs) recorded by a catheter positioned over the LV epicardium. […]
Left ventricular homogenate was prepared as follows: after removal of the heart, it was placed in nominally Ca^2+ free ice-cold HEPES-buffered Tyrode's solution. […] Protein concentration was measured by the method of Bradford, using BSA as the standard.
Assay of CaM kinase activity was performed essentially as described by Waldmann et al. with a few modifications. […] Calcium/calmodulin-dependent phosphorylation of the autocamtide 3 substrate was then quantitated as described. Calcium/calmodulin-independent CaM kinase activity was quantitated as described above, but Ca^2+ was omitted from the assay solution. […]

[2] = test system: isolated rabbit hearts; test: Clofilium-induced early afterdepolarizations (EADs) in isolated perfused rabbit hearts
From the text: FIG. 1. […] Data tracings show (from top to bottom) monophasic action potentials (MAP) and left ventricular (LV) pressure. The horizontal lines to the left of the LV pressure tracings (top to bottom) indicate 100 mm Hg and 0 mm Hg levels and 850 ms for panels A and B. All experiments with isolated hearts consisted of 3 periods. A fourth period (experimental period 4) was only added in hearts with EADs. Experimental periods are labeled 1-4 (top of page for both panels A and B). Experimental period 1 measurements represent control and follow >10 min of stabilization. […] Period 3 measurements follow addition of clofilium (7.5 μmole/l) and are taken at EAD initiation or from the longest action potential duration recorded over 30 min. Multiple EADs are seen as 2 oscillations during repolarization on the MAP tracings in experimental period 3. Secondary elevations in LV pressure coinciding with EADs are also seen in the LV pressure tracing in experimental period 3. Experimental period 4 measurements follow EAD termination by addition of nifedipine (10 μmole/l) (shown above) or Cd^2+ (200-500 μmole/l) (data not shown). The horizontal bars indicate the experimental conditions for both panels A and B. (B) Experimental design for isolated rabbit hearts treated with CaM kinase inhibitor KN-93. Arrangement of data tracings is the same as in FIG. 1A (above). Experimental periods are also the same as in FIG. 1A (above) except the active CaM kinase inhibitor KN-93 (0.5 μmole/l) was added 10 min prior to period 2 measurements. […] (C) Continuous record of EAD termination by nifedipine (10 μM) in a heart paced at a cycle length of 1500 ms. Data tracings show MAP with single EADs (top) and LV pressure (bottom). The horizontal lines to the left of the LV pressure tracings indicate 50 mm Hg and 0 mm Hg pressure levels (top to bottom). EAD termination occurs prior to the first discernible decrease (i.e. >10% below baseline) in LV pressure. The vertical arrow marks the first beat of EAD termination.
New Zealand White rabbits of either gender (2.7-3.2 kg) were treated with a heparin bolus (150 U/kg IV) and killed by pentobarbital (50 mg/kg IV) overdose. Hearts were rapidly excised and placed in ice-cold Tyrode's solution for dissection of extracardiac tissue. (Tyrode's solution was composed of (mmol/l) NaCl (130.0), NaHCO3 (20.0), glucose (5.6), KCl (3.0), CaCl2 (2.0), NaH2PO4 (1.8), MgCl24H2O(0.7).) The aorta was cannulated, and perfused retrograde with Tyrode's solution. The perfusate (200 ml) was recirculated through a warming bath and filling pressure was adjusted to 20 cm of H2O. Recirculation time was ˜1 min, based on the time to decrease in left ventricular (LV) pressure following addition of ICa blockers to the recirculating perfusate. Temperature was monitored using a thermistor probe positioned in the right ventricle (RV) and maintained at 33±1° C. by a closed loop feed back system. The perfusate was vigorously bubbled with 95% O2, 5% CO2 and pH was monitored throughout the experiments and adjusted to 7.4 with LN NaOH or HCl, as appropriate. Both atria were removed and drains were placed in the RV and LV apices. An electrocardiogram (ecg) lead was sutured to the LV apex and the proximal pulmonary artery. Epicardial pacing wires were inserted into the RV free wall. Bradycardia was produced by crushing the AV node with a forceps. Epicardial pacing maintained a minimum cycle length of 1500 ms (heart rate of 40 beats/min). Pacing output was adjusted to twice diastolic threshold. In most experiments LV pressure was continuously monitored with a solid state transducer (Camino Laboratories) placed in a saline filled latex balloon. The balloon was secured with a purse string suture around the left atrial remnant and pressure was adjusted to maximize the LV developed pressure (LVDP) keeping the LV end diastolic pressure <10 mmHg. […]

[3] = biological target: CaM kinase; conditions: read-out: reported Ki, competitive inhibition of calmodulin binding to CaM kinase; cited from earlier work
[4] = test system: protein kinase A (PKA); conditions: cited from earlier work
[5] = test system: protein kinase C (PKC); conditions: cited from earlier work
[6] = biological target: T1, L-type Ca2+ current (ICa) (Oryctolagus cuniculus, UniProt P15381); test: Whole cell voltage clamp of L-type Ca2+ current in single ventricular myocytes; assay type: cell-based, rabbit
T1 construct: endogenous in cells; host or cells: freshly isolated New Zealand White rabbit ventricular myocytes

[7] = test system: L-type calcium window current; test: L-type calcium window current with an EAD-containing action potential voltage clamp wave form; assay type: cell-based, rabbit; conditions: dialysis with peptide; data not shown
[8] = test system: isolated heart cells; test: Pacing-induced inward current (DAD-linked) in isolated heart cells, action potential voltage clamp; assay type: cell-based, rabbit; conditions: 0.5 Hz; for cells that developed inward currents: peptide 20 μmole/l dialyzed, 32° C.
Protocol: FIG. 7. CaM kinase inhibition suppresses pacing induced inward current. Isolated heart cells were paced (0.5 Hz, T=32° C.) using a prolonged action potential voltage clamp command wave form. (A) A prolonged action potential was digitized and used as a voltage clamp command waveform for current tracings below. Command membrane potential is on the ordinate and time (for panels A-C) is on the abscissa (B) Inward currents developed after completion of the command wave form in 5/6 cells dialyzed with a control peptide (SEQ ID NO: 2, 20 μmole/l) devoid of CaM kinase inhibitory activity. Cell membrane currents are referenced on the ordinate for both panels B and C.
Isolated heart cells (Experimental Methods, Example 6) were stimulated (0.5 Hz) in voltage clamp using a prolonged action potential wave form (FIG. 7A). Rapid pacing favors intracellular calcium overload. Inward currents that develop in response to rapid pacing are a marker for intracellular calcium overload and they are the basis for arrhythmogenic delayed afterdepolarizations (DADs).
Isolated cells were studied with the action potential command wave form using voltage clamp methodology (Experimental Methods, Example 6). Cells were stimulated at 0.5 Hz and 32° C. (heated stage from Warner Instruments) for up to 100 beats. Recording solutions were identical to those for action potential recording except that the calcium buffer EGTA was omitted from the intracellular solution to favor intracellular calcium overload. The presence or absence of the post-repolarization inward current was noted.

[9] = test system: isolated rabbit ventricular myocytes; test: EAD induction in isolated rabbit ventricular myocytes in current clamp with low extracellular potassium; assay type: cell-based; conditions: cells dialyzed with peptide; for EADs induced (cells with EADs/cells): 1.0 mM extracellular potassium
Protocol: Action potentials were induced in isolated rabbit ventricular myocytes studied in current clamp with low (1.0 mM) extracellular potassium to favor EAD induction.
Action potential recording was performed in the following bath solution (mmol/L): NaCl 140.0, Glucose 10.0, HEPES 5.0, KCl 5.4, CaCl2 2.5, MgCl2 1.0; pH was adjusted to 7.4 with 10 N NaOH. The intracellular pipette solution for action potential recording contained (mmol/L): K aspartate 120.0, HEPES 10.0, EGTA 10.0, Na2ATP 5.0, MgCl2 4.0, CaCl2 3.0; pH was adjusted to 7.2 with 1N KOH. Unless otherwise noted, all chemicals were from Sigma.
Cells were stimulated at 0.1 Hz in whole cell configuration in current clamp mode with 0.1 to 1.0 nA pulses of depolarizing current (1.25×threshold) for 2-3 ms at room temperature (20°-23° C.). Action potentials were low pass filtered at 2 KHz and sampled at 2.5 KHz with a 12-bit analog to digital converter (Digidata 1200 B, Axon Instruments). A long action potential waveform was digitized and stored for application as a voltage command using pClamp 6.03.

[10] = pretreatment 0.5 μmol/l, clofilium 7.5 μM

T1 sequence (P15381 whole entry, other chains not shown): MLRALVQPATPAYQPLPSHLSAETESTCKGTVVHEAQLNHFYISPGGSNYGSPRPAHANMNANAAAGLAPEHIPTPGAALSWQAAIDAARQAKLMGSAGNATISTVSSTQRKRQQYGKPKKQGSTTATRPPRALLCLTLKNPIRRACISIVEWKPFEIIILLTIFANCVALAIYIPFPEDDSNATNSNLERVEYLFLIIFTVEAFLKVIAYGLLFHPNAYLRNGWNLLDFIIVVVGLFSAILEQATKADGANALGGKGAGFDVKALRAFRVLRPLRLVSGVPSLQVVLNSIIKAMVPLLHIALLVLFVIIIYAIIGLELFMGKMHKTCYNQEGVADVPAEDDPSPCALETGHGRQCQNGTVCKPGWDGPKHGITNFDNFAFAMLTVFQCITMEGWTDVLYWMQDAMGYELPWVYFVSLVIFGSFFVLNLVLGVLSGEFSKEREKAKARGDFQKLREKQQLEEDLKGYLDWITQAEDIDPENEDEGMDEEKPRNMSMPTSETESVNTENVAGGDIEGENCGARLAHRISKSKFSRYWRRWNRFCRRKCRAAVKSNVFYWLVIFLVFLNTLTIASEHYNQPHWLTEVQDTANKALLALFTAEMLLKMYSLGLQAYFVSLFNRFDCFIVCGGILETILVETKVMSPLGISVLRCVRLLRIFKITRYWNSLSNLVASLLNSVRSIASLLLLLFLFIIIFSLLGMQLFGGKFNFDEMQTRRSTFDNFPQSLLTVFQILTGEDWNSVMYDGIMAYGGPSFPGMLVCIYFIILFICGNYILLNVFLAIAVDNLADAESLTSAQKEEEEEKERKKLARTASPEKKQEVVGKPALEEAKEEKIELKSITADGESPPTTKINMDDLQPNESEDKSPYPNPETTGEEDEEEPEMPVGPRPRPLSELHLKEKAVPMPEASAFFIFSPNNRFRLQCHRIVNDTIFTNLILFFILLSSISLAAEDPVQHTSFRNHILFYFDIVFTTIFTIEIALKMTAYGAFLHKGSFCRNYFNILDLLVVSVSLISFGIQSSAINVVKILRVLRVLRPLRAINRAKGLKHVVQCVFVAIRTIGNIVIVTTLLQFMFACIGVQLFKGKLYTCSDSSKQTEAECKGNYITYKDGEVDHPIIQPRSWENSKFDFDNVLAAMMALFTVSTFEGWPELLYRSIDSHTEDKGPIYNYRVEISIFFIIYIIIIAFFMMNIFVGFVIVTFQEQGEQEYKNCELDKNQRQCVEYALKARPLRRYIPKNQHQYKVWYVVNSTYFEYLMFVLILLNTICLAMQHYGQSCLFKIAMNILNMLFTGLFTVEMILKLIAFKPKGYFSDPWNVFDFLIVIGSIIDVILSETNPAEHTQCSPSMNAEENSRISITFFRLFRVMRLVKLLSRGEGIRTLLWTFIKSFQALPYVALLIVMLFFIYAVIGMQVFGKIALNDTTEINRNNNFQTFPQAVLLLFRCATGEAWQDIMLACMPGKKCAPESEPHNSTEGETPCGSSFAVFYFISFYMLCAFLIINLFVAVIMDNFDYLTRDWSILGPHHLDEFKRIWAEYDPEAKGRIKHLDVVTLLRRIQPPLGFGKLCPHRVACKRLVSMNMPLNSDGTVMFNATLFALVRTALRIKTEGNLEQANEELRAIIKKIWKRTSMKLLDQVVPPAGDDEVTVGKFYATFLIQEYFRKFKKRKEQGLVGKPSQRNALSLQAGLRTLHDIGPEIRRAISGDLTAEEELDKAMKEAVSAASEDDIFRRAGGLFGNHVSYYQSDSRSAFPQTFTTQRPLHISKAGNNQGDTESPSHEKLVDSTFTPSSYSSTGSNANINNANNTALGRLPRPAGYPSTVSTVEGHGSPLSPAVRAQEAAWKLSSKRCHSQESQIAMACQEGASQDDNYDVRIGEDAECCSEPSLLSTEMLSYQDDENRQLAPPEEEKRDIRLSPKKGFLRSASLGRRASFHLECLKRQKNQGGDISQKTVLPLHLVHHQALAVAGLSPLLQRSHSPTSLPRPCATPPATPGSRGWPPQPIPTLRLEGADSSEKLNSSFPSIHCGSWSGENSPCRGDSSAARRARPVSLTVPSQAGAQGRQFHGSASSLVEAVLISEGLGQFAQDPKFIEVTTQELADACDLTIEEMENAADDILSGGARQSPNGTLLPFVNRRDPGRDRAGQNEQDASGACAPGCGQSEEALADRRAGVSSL
T1 sequence (P13806 27-960 partner limits assumed, other chains not shown): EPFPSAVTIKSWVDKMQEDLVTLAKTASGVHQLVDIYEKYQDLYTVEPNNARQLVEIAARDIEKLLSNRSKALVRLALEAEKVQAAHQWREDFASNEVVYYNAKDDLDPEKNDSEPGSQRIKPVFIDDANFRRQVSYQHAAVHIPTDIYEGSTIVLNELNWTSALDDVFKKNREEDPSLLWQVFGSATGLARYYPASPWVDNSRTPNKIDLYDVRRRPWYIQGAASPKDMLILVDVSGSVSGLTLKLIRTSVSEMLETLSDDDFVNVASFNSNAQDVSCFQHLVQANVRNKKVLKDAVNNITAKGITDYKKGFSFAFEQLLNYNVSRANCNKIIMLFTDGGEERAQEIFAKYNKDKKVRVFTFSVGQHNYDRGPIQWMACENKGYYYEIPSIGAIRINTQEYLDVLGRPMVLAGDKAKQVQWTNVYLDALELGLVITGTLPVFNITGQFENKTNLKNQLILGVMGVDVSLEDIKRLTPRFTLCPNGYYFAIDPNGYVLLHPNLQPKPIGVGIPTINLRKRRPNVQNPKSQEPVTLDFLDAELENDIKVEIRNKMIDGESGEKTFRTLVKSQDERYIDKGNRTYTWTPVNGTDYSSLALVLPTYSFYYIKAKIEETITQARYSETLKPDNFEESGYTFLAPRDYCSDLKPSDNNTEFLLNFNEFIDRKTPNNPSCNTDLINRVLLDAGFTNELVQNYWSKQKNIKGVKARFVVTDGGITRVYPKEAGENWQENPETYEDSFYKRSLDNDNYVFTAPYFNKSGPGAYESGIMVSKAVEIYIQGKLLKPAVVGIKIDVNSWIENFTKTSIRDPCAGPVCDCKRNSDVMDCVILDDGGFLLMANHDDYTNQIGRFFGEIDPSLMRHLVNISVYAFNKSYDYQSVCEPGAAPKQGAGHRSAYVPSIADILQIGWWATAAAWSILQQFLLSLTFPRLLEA
T1 sequence (P13806 961-1106 partner limits assumed, other chains not shown): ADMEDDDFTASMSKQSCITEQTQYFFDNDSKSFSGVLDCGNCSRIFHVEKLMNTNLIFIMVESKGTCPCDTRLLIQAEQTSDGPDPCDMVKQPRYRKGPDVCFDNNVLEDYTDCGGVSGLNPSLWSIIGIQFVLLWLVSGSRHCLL
Chain of CaM kinase (Oryctolagus cuniculus, UniProt O77708) (O77708 2-533): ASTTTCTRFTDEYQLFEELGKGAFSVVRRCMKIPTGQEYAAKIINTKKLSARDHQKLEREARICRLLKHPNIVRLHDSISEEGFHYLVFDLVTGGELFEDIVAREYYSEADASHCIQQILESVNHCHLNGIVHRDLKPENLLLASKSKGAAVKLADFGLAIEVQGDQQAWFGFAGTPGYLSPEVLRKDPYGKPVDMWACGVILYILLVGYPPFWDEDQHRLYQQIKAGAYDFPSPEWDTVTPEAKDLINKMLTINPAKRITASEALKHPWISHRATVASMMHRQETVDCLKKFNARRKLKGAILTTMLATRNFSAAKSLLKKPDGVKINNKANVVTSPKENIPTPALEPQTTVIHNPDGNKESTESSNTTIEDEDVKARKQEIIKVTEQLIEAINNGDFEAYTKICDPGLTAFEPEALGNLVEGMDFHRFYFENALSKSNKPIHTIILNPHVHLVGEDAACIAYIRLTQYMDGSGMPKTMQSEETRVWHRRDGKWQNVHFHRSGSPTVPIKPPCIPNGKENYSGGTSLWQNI

CCCCCCC[N+](CC)(CC)CCCCc1ccc(Cl)cc1 [clofilium]
Ca2+-independent CaM kinase activity compared to control [1]: increased significantly
EAD induction by clofilium in hearts without any pretreatment ([2]; clofilium 7.5 μM, no pretreatment): 8/8

COc1ccc(S(=O)(=O)N(CCO)c2ccccc2CN(C)CC=Cc2ccc(Cl)cc2)cc1 [KN-93, 2-[N-(2-hydroxyethyl)-N-(4-methoxy-benzenesulfonyl)]-amino-N-(4-chlorocinnamyl)-N-methylbenzylamine]
Ca2+-independent CaM kinase activity compared to control [1]: No significant increase
Ki [3]: 0.37 µM
MAP duration prolongation by clofilium ([2]; pretreatment 0.5 μmol/l): without reducing MAP duration prolongation
EADs in response to clofilium (hearts with EADs/hearts) [2, 10]: 4/10
multiple EADs (hearts with multiple EADs/hearts) [2, 10]: 1/10
left ventricular developed pressure (LVDP) following clofilium ([2]; pretreatment 0.5 μmol/l, clofilium 7.5 μmole/l): completely prevented the increase in LVDP
effects on protein kinase A (PKA) [4]: neither KN-93 nor KN-92 have appreciable effects
effects on protein kinase C (PKC) [5]: neither KN-93 nor KN-92 have appreciable effects
apparent voltage dependence of ICa activation [6]: Neither KN-92 or KN-93 shifted
steady state inhibition of peak ICa ([6]; 0.5 μmol/l external application, cells dialyzed with BAPTA): 36.2±4.3%
peak steady state ICa inhibition relative to KN-92 ([6]; 1.0 μmol/l): more effective ICa inhibitor

KKALHRQEAVDCL [SEQ ID NO: 1]
effect on L-type calcium window current [7]: an increase in the current was prevented
IC50 [4]: ≥ 500 µM
IC50 [5]: ≥ 500 µM
cells that developed inward currents [8]: 0/5
kind of EADs seen [9]: only single EADs
EADs induced (cells with EADs/cells) [9]: 4/15

Ryanodine
cells in which development of pacing induced inward currents was prevented ([8]; 10 μmole/l): 2/2

KKALHAQERVDCL [SEQ ID NO: 2]
effect on L-type calcium window current [7]: no significant effect
cells that developed inward currents [8]: 5/6
kind of EADs seen [9]: complex and repetitive
EADs induced (cells with EADs/cells) [9]: 11/15
